Source: PubChem BioAssay (NCI)
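Five concentrations, 48 hours, 96-well plates. GI50 = concentration required for 50% inhibition of growth. The concentration for full growth arrest is given as TGI.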

Assays:
Assay in all cases: inhibition of tumour cell growth, NCI panel, 48 h
NCI/ADR-RES ovarian = system: NCI/ADR-RES ovarian
PC-3 prostate = system: PC-3 prostate
OVCAR-4 ovarian = system: OVCAR-4 ovarian
HOP-62 NSCLC = system: HOP-62 NSCLC
SK-MEL-28 melanoma = system: SK-MEL-28 melanoma
T-47D breast = system: T-47D breast
MOLT-4 leukemia = system: MOLT-4 leukemia
SF-295 CNS = system: SF-295 CNS
UO-31 renal = system: UO-31 renal
ACHN renal = system: ACHN renal

Row | Structure (SMILES) | GI50 (NCI/ADR-RES ovarian) [µM] | TGI (NCI/ADR-RES ovarian) [µM] | GI50 (PC-3 prostate) [µM] | TGI (PC-3 prostate) [µM] | GI50 (OVCAR-4 ovarian) [µM] | TGI (OVCAR-4 ovarian) [µM] | GI50 (HOP-62 NSCLC) [µM] | TGI (HOP-62 NSCLC) [µM] | GI50 (SK-MEL-28 melanoma) [µM] | TGI (SK-MEL-28 melanoma) [µM] | GI50 (T-47D breast) [µM] | TGI (T-47D breast) [µM] | GI50 (MOLT-4 leukemia) [µM] | TGI (MOLT-4 leukemia) [µM] | GI50 (SF-295 CNS) [µM] | TGI (SF-295 CNS) [µM] | GI50 (UO-31 renal) [µM] | TGI (UO-31 renal) [µM] | GI50 (ACHN renal) [µM] | TGI (ACHN renal) [µM]
1 | Cc1ccc2[nH]cc(-c3nc(-c4c[nH]c5ncccc45)cs3)c2c1 | > 100 | > 100 | > 100 | > 100 | > 100 | > 100 | > 100 | > 100 | > 100 | > 100 | > 100 | > 100 | > 100 | > 100 | > 100 | > 100 | 0.244 | > 100 | > 100 | > 100
2 | O=C1C(Br)=CC2([N+](=O)[O-])CCNc3c(O)c4c5c(c3C2=C1Br)=NCCC=5C=N4 (stereo not drawn) | – | 6.52 | – | – | – | 3.7 | – | 11 | – | 9.95 | – | – | – | – | – | 4.63 | – | 22.9 | – | –
3 | COc1ccc2[nH]c(C(=O)N3CC(CCl)c4ccc(N)cc43)cc2c1 (stereo not drawn) | – | 2.28 | – | 10 | – | 0.609 | – | > 100 | – | > 31.6 | – | > 100 | – | > 100 | – | – | – | – | – | 0.375
4 | CC(=O)O[C@H]1CC[C@@]2(C)C(=CC[C@@H]3[C@@H]2CC[C@]2(C)C(c4cccnc4)=CC[C@@H]32)C1 | 3.99 | 34.2 | 3.98 | > 100 | 4.61 | > 100 | 6.24 | > 100 | 3.53 | > 100 | 2.81 | 55.7 | 6.3 | > 100 | 2.33 | 8.35 | 5.47 | > 100 | 4.88 | 43.9
5 | N/N=C(\C(=O)Nc1c(Cl)cc([N+](=O)[O-])cc1Cl)C(c1cnc2ccc([N+](=O)[O-])cc2n1)[N+](=O)[O-] (stereo not drawn) | – | – | – | – | – | > 100 | – | > 100 | – | > 100 | – | – | – | > 100 | – | > 100 | – | > 100 | – | > 100
6 | CC(=O)OC(Cc1cc(C=C(C(F)(F)F)C(F)(F)F)cc(C)n1)(C(F)(F)F)C(F)(F)F | – | > 100 | – | 5.34 | – | 4.76 | – | 3.42 | – | 2.85 | – | 6.88 | – | – | – | 8.21 | – | 3.08 | – | 2.84
7 | CCCC/C=C1\CCC(CN2CCCCC2)C1=O (stereo not drawn) | – | > 100 | – | > 100 | – | 48 | – | 49.4 | – | 36.7 | – | > 100 | – | 18.4 | – | 45.5 | – | 47.7 | – | 44.3
8 | COC(=O)/C=C\Sc1ccn(/C=C\C(=O)OC)c(=S)n1 | – | 40.7 | – | 46.5 | – | 35.3 | – | 32.4 | – | > 100 | – | 46.1 | – | – | – | – | – | 50.5 | – | 32.2
9 | COc1ccc2c3c1OC1CC(O)C=CC31CCN(C)C2 (stereo not drawn) | – | > 150 | – | – | – | > 150 | – | > 150 | – | > 150 | – | – | – | > 150 | – | > 150 | – | > 150 | – | –
10 | CN(C)c1ccc(N2C(=S)SC(=Nc3ccccc3)C2=Nc2ccccc2)cc1 | – | > 100 | – | > 100 | – | > 100 | – | > 100 | – | > 100 | – | > 100 | – | – | – | > 100 | – | > 100 | – | –
11 | O=C(Nc1ccccc1F)c1c(O)nc2sccn2c1=O | – | > 10 | – | > 10 | – | > 10 | – | > 10 | – | > 10 | – | > 10 | – | > 10 | – | > 10 | – | > 10 | – | > 10
